Data published in patent US20260125382A1, “COMPOUNDS FOR INHIBITING OR DEGRADING CDK2 AND/OR CDK9 AND MEDICINAL USE THEREOF” (KOREA RESEARCH INSTITUTE OF CHEMICAL TECHNOLOGY, priority 2022, published 2026).

How the values were obtained:
[1] = target: T1, CDK2 (Homo sapiens, UniProt P24941); assay: CDK protein degradation activity (Western blotting), CDK2; assay type: cell-based; settings: MDA-MB-231 cells, 16 hours, Western blot
T1 construct: endogenous in cells; host or cells: MDA-MB-231
Outline: (§1)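 MDA-MB-231 cells treated 16 h with compound at 100 nM, 1 μM or 10 μM, with DMSO as control. Lysates run on SDS-PAGE and immunoblotted for CDK2, CDK9 and tubulin; band levels quantified by densitometry.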

[2] = target: T2, CDK9 (Homo sapiens, UniProt P50750); assay: CDK protein degradation activity (Western blotting), CDK9; assay type: cell-based; settings: MDA-MB-231 cells, 16 hours, Western blot
T2 construct: endogenous in cells; host or cells: MDA-MB-231
T2 sequence (P50750 whole entry): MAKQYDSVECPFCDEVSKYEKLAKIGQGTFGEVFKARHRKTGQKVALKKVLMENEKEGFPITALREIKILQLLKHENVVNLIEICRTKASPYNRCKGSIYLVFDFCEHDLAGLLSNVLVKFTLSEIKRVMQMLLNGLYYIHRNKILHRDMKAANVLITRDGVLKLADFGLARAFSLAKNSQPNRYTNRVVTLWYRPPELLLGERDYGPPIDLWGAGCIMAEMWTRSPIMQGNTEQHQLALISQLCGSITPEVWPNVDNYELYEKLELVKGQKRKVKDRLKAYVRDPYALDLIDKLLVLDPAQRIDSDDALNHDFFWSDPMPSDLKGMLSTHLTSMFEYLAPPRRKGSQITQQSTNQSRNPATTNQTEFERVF
Outline: as §1

| SMILES | Enzyme degradation CDK2 (% remaining) @ 0.1 μM [1] | Enzyme degradation CDK2 (% remaining) @ 1 μM [1] | Enzyme degradation CDK2 (% remaining) @ 10 μM [1] | Enzyme degradation CDK9 (% remaining) @ 0.1 μM [2] | Enzyme degradation CDK9 (% remaining) @ 1 μM [2] | Enzyme degradation CDK9 (% remaining) @ 10 μM [2] |
| --- | --- | --- | --- | --- | --- | --- |
| O=C1CC[C@H](N2C(=O)c3ccc(N4CC(C(=O)N5CCC(CCN6CCN(c7ccc(Nc8ncnc9c8ncn9C8CC(NC(=O)c9c(Cl)cccc9Cl)C8)cc7)CC6)CC5)C4)cc3C2=O)C(=O)N1 (stereo partly drawn) [Compound 412, 2,6-dichloro-N-((1s,3s)-3-(6-((4-(4-(2-(1-(1-(2-(2,6-dioxopiperidin-3-yl)-1,3-dioxoisoindolin-5-yl)azetidin-3-carbonyl)piperidin-4-yl)ethyl)piperazin-1-yl)phenyl)amino)-9H-purin-9-yl)cyclobutyl)benzamide] | 30/30/30% | 30/30/30% | 30/30/30% | 10/10/10% | 10/10/10% | 10/10/10% |
| O=C1CC[C@H](N2C(=O)c3ccc(N4CCC(C(=O)N5CCC(CCN6CCN(c7ccc(Nc8ncnc9c8ncn9C8CC(NC(=O)c9c(Cl)cccc9Cl)C8)cc7)CC6)CC5)CC4)cc3C2=O)C(=O)N1 (stereo partly drawn) [Compound 413, 2,6-dichloro-N-((1s,3s)-3-(6-((4-(4-(2-(1-(1-(2-(2,6-dioxopiperidin-3-yl)-1,3-dioxoisoindolin-5-yl)piperidin-4-carbonyl)piperidin-4-yl)ethyl)piperazin-1-yl)phenyl)amino)-9H-purin-9-yl)cyclobutyl)benzamide] | 30% | 20% | 20% | 10/10/10% | 10/10/10% | 10/10/10% |
| O=C1CC[C@H](n2nnc3ccc(N4CCC(CN5CCN(c6ccc(Nc7ncnc8c7ncn8C7CC(NC(=O)c8cccc(Cl)n8)C7)cc6)CC5)CC4)cc3c2=O)C(=O)N1 (stereo partly drawn) [Compound 417, 6-chloro-N-((1s,3s)-3-(6-((4-(4-((1-(3-(2,6-dioxopiperidin-3-yl)-4-oxo-3,4-dihydrobenzo[d][1,2,3]triazin-6-yl)piperidin-4-yl)methyl)piperazin-1-yl)phenyl)amino)-9H-purin-9-yl)cyclobutyl)picolinamide] | 10% | 0% | 0% | 10/10/10% | 10/10/10% | 10/10/10% |
| N#Cc1cccc(C(=O)N[C@H]2C[C@@H](n3cnc4c(Nc5ccc(N6CCN(CC7CCN(C(=O)CNc8cccc9c8C(=O)N(C8CCC(=O)NC8=O)C9=O)CC7)CC6)cc5)ncnc43)C2)n1 (stereo partly drawn) [Compound 420, 6-cyano-N-((1s,3s)-3-(6-((4-(4-((1-((2-(2,6-dioxopiperidin-3-yl)-1,3-dioxoisoindolin-4-yl)glycyl)piperidin-4-yl)methyl)piperazin-1-yl)phenyl)amino)-9H-purin-9-yl)cyclobutyl)picolinamide] | 10/10/10% | 10/10/10% | 10/10/10% | 0/0/0% | 0/0/0% | 0/0/0% |
| O=C1CC[C@H](N2C(=O)c3ccc(N4CCC(C(=O)N5CCC(CN6CCC(CCNc7ncnc8c7ncn8[C@H]7C[C@@H](NC(=O)Cc8ccccc8)C7)CC6)CC5)CC4)cc3C2=O)C(=O)N1 [Compound 421, N-((1s,3s)-3-(6-((2-(1-((1-(1-(2-(2,6-dioxopiperidin-3-yl)-1,3-dioxoisoindolin-5-yl)piperidin-4-carbonyl)piperidin-4-yl)methyl)piperidin-4-yl)ethyl)amino)-9H-purin-9-yl)cyclobutyl)-2-phenylacetamide] | 60/60/60% | 60/60/60% | 60/60/60% | 0/0/0% | 0/0/0% | 0/0/0% |

The next lines start with the values.

| Enzyme degradation CDK2 (% remaining) @ 0.1 μM [1] | Enzyme degradation CDK2 (% remaining) @ 1 μM [1] | Enzyme degradation CDK2 (% remaining) @ 10 μM [1] | Enzyme degradation CDK9 (% remaining) @ 0.1 μM [2] | Enzyme degradation CDK9 (% remaining) @ 1 μM [2] | Enzyme degradation CDK9 (% remaining) @ 10 μM [2] | SMILES |
| --- | --- | --- | --- | --- | --- | --- |
| 20/20/20% | 20/20/20% | 20/20/20% | 10/10/10% | 10/10/10% | 10/10/10% | N#Cc1cccc(C(=O)N[C@H]2C[C@@H](n3cnc4c(Nc5ccc(N6CCN(CC7CCN(c8cc9c(cc8F)C(=O)N(C8CCC(=O)NC8=O)C9=O)CC7)CC6)cc5)ncnc43)C2)n1 (stereo partly drawn) [Compound 414, 6-cyano-N-((1s,3s)-3-(6-((4-(4-((1-(2-(2,6-dioxopiperidin-3-yl)-6-fluoro-1,3-dioxoisoindolin-5-yl)piperidin-4-yl)methyl)piperazin-1-yl)phenyl)amino)-9H-purin-9-yl)cyclobutyl)picolinamide] |
| 20/20/20% | 20/20/20% | 20/20/20% | 10/10/10% | 10/10/10% | 10/10/10% | O=C1CC[C@H](N2C(=O)c3cc(F)c(N4CCC(CN5CCN(c6ccc(Nc7ncnc8c7ncn8C7CC(NC(=O)c8cccc(C(F)(F)F)n8)C7)cc6)CC5)CC4)cc3C2=O)C(=O)N1 (stereo partly drawn) [Compound 415, N-((1s,3s)-3-(6-((4-(4-((1-(2-(2,6-dioxopiperidin-3-yl)-6-fluoro-1,3-dioxoisoindolin-5-yl)piperidin-4-yl)methyl)piperazin-1-yl)phenyl)amino)-9H-purin-9-yl)cyclobutyl)-6-(trifluoromethyl)picolinamide] |
| 20% | 10% | 10% | 10/10/10% | 10/10/10% | 10/10/10% | O=C1CC[C@H](N2C(=O)c3cc(F)c(N4CCC(CN5CCN(c6ccc(Nc7ncnc8c7ncn8[C@H]7C[C@@H](NC(=O)c8cccc(Cl)n8)C7)cc6)CC5)CC4)cc3C2=O)C(=O)N1 [Compound 416, 6-chloro-N-((1s,3s)-3-(6-((4-(4-((1-(2-(2,6-dioxopiperidin-3-yl)-6-fluoro-1,3-dioxoisoindolin-5-yl)piperidin-4-yl)methyl)piperazin-1-yl)phenyl)amino)-9H-purin-9-yl)cyclobutyl)picolinamide] |
| 10/10/10% | 10/10/10% | 10/10/10% | 0/0/0% | 0/0/0% | 0/0/0% | O=C1CC[C@H](N2C(=O)c3cccc(NCC(=O)N4CCC(CN5CCN(c6ccc(Nc7ncnc8c7ncn8C7CC(NC(=O)c8cccc(Cl)n8)C7)cc6)CC5)CC4)c3C2=O)C(=O)N1 (stereo partly drawn) [Compound 419, 6-chloro-N-((1s,3s)-3-(6-((4-(4-((1-((2-(2,6-dioxopiperidin-3-yl)-1,3-dioxoisoindolin-4-yl)glycyl)piperidin-4-yl)methyl)piperazin-1-yl)phenyl)amino)-9H-purin-9-yl)cyclobutyl)picolinamide] |
